The results in this text go back to patent US4020111A, “Propynyloxy alkyl arene insecticides” (priority 1975, dated 1977).

The test system of data set [1] is IN/WHO strain house flies. Nature of the data set: topical application test, percent kill after 24 hours, IN/WHO strain. It is filed as in vivo, house fly (susceptible IN/WHO strain). Conditions: HRS 1422 alone 0.125 μg/fly. How it is done:
In Table IX, and in the tables following it, the doses of topically applied insecticides and of synergists unless otherwise noted are expressed as micrograms per fly (μg/fly).
The synergistic effect of O-(2-propynyl) oximes with mobam was determined from topical application tests on susceptible, female, IN/WHO strain house flies and from tests on resistant, female, Rutgers A strain house flies. The synergist and insecticide were dissolved in ACS Grade acetone in such quantities that a 1.0μ liter volume applied to the thorax of 3-to-5 day old CO2 -anesthetized female adult house flies contained the desired dosage. After being treated, the flies were confined, 10 to a plaster petri dish, with 3-5 dishes/treatment, and held for 24-hr. observation of mortality. Reconstituted skim milk on cotton dental wicks was provided during the holding period. The percent kills after 24 hours are shown in Table X for the IN/WHO strain and Table XI for the Rutgers A strain.
The synergistic effect of benzyl 2-propynyl ethers with mobam was determined from topical application tests on IN/WHO and Rutgers A strain houseflies, following the procedure of Example 5. The percent kills after 24 hours are shown in Table XIV for the IN/WHO strain and in Table XV for the Rutgers A strain.
The effects of varying the insecticide dose and the synergist-insecticide ratio are further illustrated, with synergist compounds II-D, II-E, II-F and Mobam insecticide, in Tables XVI, XVII and XVIII.
The synergistic effect on IN/WHO flies of synergist compound II-K with Dimetilan, pyrolan, Baygon and HRS 1422 is illustrated by the 24 hour percent mortality data in Tables XIX, XX and XXI.
The effect on IN/WHO flies of synergist compound IV-C, identified in Table IV, with mobam was determined by the topical application procedure of Example 5.
The synergistic effect with Diazinon of compounds I-B, I-D, I-F, I-G, I-H and I-I, identified in Tables I and Ia, was determined from topical application tests on IN/WHO strain houseflies and on Rutgers A strain houseflies by the procedure of Example 5. The percent kills after 24 hours are shown in Table XXV for the IN/WHO strain and Table XXVI for the Rutgers A strain.
The synergistic effect with GS 13005 of compounds I-A, I-B, I-D, I-E, I-F, I-G and I-I was determined from topical application tests to IN/WHO strain, Rutgers A strain and polyvalent CH strain houseflies using the procedures of Example 5. The percent kills of the IN/WHO strain flies after 24 hours are shown in Table XXVIII; of the Rutgers A strain, in Table XXIX; and of the polyvalent CH strain, in Table XXX. The doses of insecticide alone to the CH strain files caused 10-40% mortality.
The synergistic effect with Diazinon and GS 13005 of various of the benzyl 2-propynyl ethers identified in Tables II and IIa was determined by topical application tests on IN/WHO strain, and Rutgers A strain and polyvalent, resistant, CH strain houseflies using the procedures of Example 5. The percent kills after 24 hours of IN/WHO strain flies are shown in Table XXXI; of Rutgers A strain flies, in Table XXXII; and of CH strain flies, in Table XXXIII. The doses of insecticide alone to the CH strain flies caused 10-40% mortality.
The synergist effect on IN/WHO flies of synergist compound II-K with Gardona and Bidrin is illustrated by the 24 hour percent mortality data in Tables XXXIV and XXXV.
The synergistic effect on IN/WHO strain flies and Rutgers A strain flies of compound IV-C with GS 13005 and with Diazinon was determined by the topical application procedure of Example 5. The percent kills of IN/WHO strain flies after 24 hours are shown in Tables XXXVI and XXXVII; the percent kills of Rutgers A strain flies are shown in Tables XXXVIII and XXXIX.

The test system of data set [2] is Wilson strain house flies. It is filed as in vivo, house fly (susceptible Wilson strain). Conditions: for Contact Synergistic Ratio, Carbaryl (LC50 insecticide alone / LC50 with synergist): in vivo; for Contact Synergistic Ratio, Pyrolan (LC50 insecticide alone / LC50 with synergist): synergist to insecticide 5:1 by weight, 24 h. How it is done:
The required solutions of the insecticide and of the synergist compound were prepared in acetone at a concentration of one milligram per milliliter. One-pint wide mouth glass jars were coated wiith the appropriate insecticide-synergist combination by rolling the jars containing aliquots of the appropriate solutions diluted to three milliliters with acetone to deposit, by evaporation, a film of the test materials. The flies were transferred under carbon dioxide anesthesia and held in the jar at room temperature. Perforated aluminum foil was used to cover the jars and to hold cotton saturated with 10% sugar solution. Counts were made at intervals, but the recorded mortality was based on 24-hour kill, rather than knockdown. All prostrate nonmoving flies were considered dead. A determination was then made of the contact synergistic ratio [SR], which is the ratio of the LC50 of insecticide alone to the LC50 of the insecticide when applied together with the synergist. The LC50 of the insecticide was estimated from a log-probit plot of percent kill versus dosage. […] The LC50 of the combination of insecticide and synergist was determined at a synergist to insecticide parts by weight ratio of five to one.

Data set [3] relates to mice. Nature of the data set: extension of Secobarbital sleeping time by synergists. The format is in vivo, Swiss albino white male mice. The note with it: Secobarbital 37 mg/K; for Relative Sleeping Time: treated/control. On the procedure: (§1) The selectivity of the synergist compounds of this invention is illustrated by the results of sleeping-time extension tests and of acute toxicity tests on Swiss albino white male mice.
(§2) The effect of various synergist compounds on sleeping time of sodium secobarbital [Secobarbital] and of 3,3-diethyl-5-methyl-2,4-dioxypiperidine [Noludar] was determined by administering the drug, with and without synergist, to approximately 38-day old male mice weighing from 25 to 30 grams. Synergists were administered in each of two doses, 74.0 mg/kg (dilution being 2.0 mg/0.1 ml corn oil), and 110.0 mg/kg (dilution 3.0 mg/0.1 ml oil). Secobarbital was administered at a dose of 37.0 mg/kg (dilution 1.0 mg/0.1 ml water). Noludar was administered at a dose of 110.0 mg/kg (dilution 3.0 mg/0.1 ml water). The synergist was administered one hour prior to administration of the Secobarbital or Noludar. Secobarbital and Noludar sleeping times were obtained for both the control (drug only) and the treated (synergist plus drug) mice by noting the time lapse between the administration of the drug and the recovery of the righting reflex, i.e. when the animal regains conciousness and can walk up an inclined wooden tray with coordination. The relative sleeping time (R.S.) was noted. The R.S. is the extended sleeping time in the treated mice (synergist plus drug) divided by the sleeping time in the control mice (drug only). The mean sleeping time for the treated mice and the R.S. are shown on Table XXXXIV for various synergist compounds.

For data set [4], the system named is mice. Nature of the data set: extension of Noludar sleeping time by synergists. The format is in vivo, Swiss albino white male mice. Conditions: Noludar 110 mg/K, synergist 110 mg/K; for Relative Sleeping Time: treated/control. How it is done:
as §1, §2

In data set [5] the test system is mice. Nature of the data set: synergism of acute toxicity of Dimetilan, GS 13005, Secobarbital and Methadone (intraperitoneal). The format is in vivo, Swiss albino white male mice. Conditions: for number of mice dead: 48 hours, of eight mice. How it is done:
The synergism of the acute toxicity of Dimetilan by various synergists was determined by tests on Swiss albino, white male mice aged 5 to 6 weeks and weighing 23 to 27 grams. The synergists and insecticides were dissolved in corn oil and the drugs were dissolved in distilled water. All compounds were administered intraperitoneally by injection in the lower quadrent of the abdomen. The synergist was administered in 0.1 ml of corn oil 1 hour prior to administration of the insecticide. Eight mice were treated, per dosage, with each synergist. The mice were watched for a minimum of 6 hours while held in a glass jar with bedding individually after intraperitoneal injection of the test solutions. Lethality was noted, the animals were weighed and transferred in cages, and food and water were supplied. Control mice were given 0.1 ml of corn oil at the time of administration of the synergist to the test mice and 0.1 ml corn oil plus Dimetilan at the time of administration of the insecticide to the test mice.
By the same procedure, the synergism of acute toxicity of GS 13005, Secobarbital and 6-dimethylamino-4,4-diphenyl-3-heptanone [Methadone] was determined.

Setting [6] is: Dimetilan 8 mg/kg + synergist 80 mg/kg ip.
[7] abbreviates: Dimetilan 8 mg/kg + synergist 240 mg/kg ip.

Molecules are shown by their SMILES.

Turning to `CNC(=O)Oc1cc(C(C)C)cc(C(C)C)c1` [HRS 1422, 3,5-di-isopropylphenyl methylcarbamate, reference compound], in data set [1], the “24 hour percent mortality” value is reported as 0%.

For the compound `C#CCOCc1ccc(Cl)cc1` [II-A], in data set [2], the “Contact Synergistic Ratio, Carbaryl (LC50 insecticide alone / LC50 with synergist)” value was found to be 50 and the “Contact Synergistic Ratio, Pyrolan (LC50 insecticide alone / LC50 with synergist)” value came out at 7.

As for `C#CCOCc1ccc(Cl)cc1Cl` [II-B], in data set [2], the “Contact Synergistic Ratio, Carbaryl (LC50 insecticide alone / LC50 with synergist)” value is 50 and the “Contact Synergistic Ratio, Pyrolan (LC50 insecticide alone / LC50 with synergist)” value is recorded as 15.

As for `C#CCOCc1ccc2c(c1)OCO2` [II-G], in data set [2], the “Contact Synergistic Ratio, Carbaryl (LC50 insecticide alone / LC50 with synergist)” value was 100 and the “Contact Synergistic Ratio, Pyrolan (LC50 insecticide alone / LC50 with synergist)” value was 15.

Turning to `C#CCOCc1cccc(Cl)c1[N+](=O)[O-]` [II-I], the figures for the “Mean Sleeping Time” value in the data set on mice [3] (synergist 74 mg/K), with mice [3] (synergist 110 mg/K) and with mice [4] were 31 min, 32 min and 56 min, respectively. Moreover, the “Relative Sleeping Time” value in the data set with mice [3] (synergist 74 mg/K) is 1.2; in the data set on mice [3] (synergist 110 mg/K), 1.3; in the data set on mice [4] it was 1.8. Besides, the “number of mice dead” value in the data set on mice [5] (setting [6]) amounted to 0; with mice [5] (setting [7]), 3.

Turning to `C#CCOCc1ccc(Cl)cc1[N+](=O)[O-]` [II-J], the “Mean Sleeping Time” value amounted to 27 min with mice [3] (synergist 74 mg/K), 30 min in the data set with mice [3] (synergist 110 mg/K) and 70 min in the data set on mice [4]. The figures for the “Relative Sleeping Time” value with mice [3] (synergist 74 mg/K), in the data set on mice [3] (synergist 110 mg/K) and with mice [4] were 1.0, 1.4 and 2.2, respectively. The “number of mice dead” value was 0 in the data set with mice [5] (setting [6]) and 4 in the data set on mice [5] (setting [7]). The “mice lethality (number dead)” value was 6 in the data set with mice [5] (GS 13005 71 mg/kg + synergist 213 mg/kg), 3 with mice [5] (Methadone 32 mg/kg + synergist 215 mg/kg) and 0 with mice [5] (Secobarbital 90 mg/kg + synergist 215 mg/kg).

Take `C#CCOCc1cccc([N+](=O)[O-])c1Cl` [II-L]: the “Mean Sleeping Time” value amounted to 31 min in the data set with mice [3] (synergist 74 mg/K), 42 min with mice [3] (synergist 110 mg/K) and 56 min in the data set with mice [4]. For the same compound, the entries for the “Relative Sleeping Time” value with mice [3] (synergist 74 mg/K), in the data set on mice [3] (synergist 110 mg/K) and with mice [4] were 1.0, 1.8 and 1.8, respectively. In addition, the “number of mice dead” value was found to be 0 in the data set with mice [5] (setting [6]) and 5 with mice [5] (setting [7]).

For `C#CCOCc1ccc(Cl)c([N+](=O)[O-])c1` [II-M], the “Mean Sleeping Time” value stood at 29 min with mice [3] (synergist 74 mg/K), 47 min with mice [3] (synergist 110 mg/K) and 47 min with mice [4]. The figures for the “Relative Sleeping Time” value in the data set on mice [3] (synergist 74 mg/K), in the data set with mice [3] (synergist 110 mg/K) and in the data set on mice [4] were 1.0, 2 and 2.1, respectively. Also, the “number of mice dead” value came to 0 in the data set with mice [5] (setting [6]) and 3 in the data set with mice [5] (setting [7]).

On to `C#CCOCc1ccc([N+](=O)[O-])cc1Cl` [II-N], for which the “Mean Sleeping Time” value is 20 min in the data set with mice [3] (synergist 74 mg/K), 39 min in the data set on mice [3] (synergist 110 mg/K) and 58 min with mice [4]. In addition, the results for the “Relative Sleeping Time” value in the data set with mice [3] (synergist 74 mg/K), in the data set with mice [3] (synergist 110 mg/K) and in the data set on mice [4] were 1.0, 1.7 and 1.9, respectively. The “number of mice dead” value with mice [5] (setting [6]) came to 0; in the data set with mice [5] (setting [7]), 4.

In the case of `C#CCOCc1ccc([N+](=O)[O-])c(Cl)c1` [II-O], the “Mean Sleeping Time” value in the data set with mice [3] (synergist 110 mg/K) came to 26 min; in the data set on mice [4], 52 min. For the same compound, the “Relative Sleeping Time” value is given as 1.1 in the data set with mice [3] (synergist 110 mg/K) and 2.4 with mice [4]. For the same compound, the “number of mice dead” value in the data set with mice [5] (setting [6]) is reported as 0; in the data set with mice [5] (setting [7]), 2.

For `C#CCn1nc(Cl)c2ccc([N+](=O)[O-])cc21` [III-C, N-(2-propynyl)-3-chloro-6-nitroindazole], in data set [2], the “Contact Synergistic Ratio, Carbaryl (LC50 insecticide alone / LC50 with synergist)” value stood at 53 and the “Contact Synergistic Ratio, Pyrolan (LC50 insecticide alone / LC50 with synergist)” value was 10.

Regarding `C#CCOC(c1cccc2ccccc12)C(C)[N+](=O)[O-]` (centres unmarked) [IV-B, 2-propynyl 1-naphthyl-2-nitropropyl ether], in data set [2], the “Contact Synergistic Ratio, Carbaryl (LC50 insecticide alone / LC50 with synergist)” value was determined as 50 and the “Contact Synergistic Ratio, Pyrolan (LC50 insecticide alone / LC50 with synergist)” value is recorded as 10.

As for `CCC(=O)C(CC(C)N(C)C)(c1ccccc1)c1ccccc1` (centres unmarked) [Methadone, 6-dimethylamino-4,4-diphenyl-3-heptanone, reference compound], in the data set on mice [5] (control: Methadone 32 mg/kg in 0.1 ml corn oil), the “mice lethality (number dead)” value was 2.

With `C=CCC1(C(C)CCC)C(=O)NC(=O)NC1=O` (centres unmarked) [Secobarbital, sodium secobarbital, reference compound], in the data set on mice [5] (control: Secobarbital 90 mg/kg in 0.1 ml corn oil), the “mice lethality (number dead)” value stood at 0.
